# Tests used:
# [1] = system: MCF-7 breast cancer cells; assay: Viability of MCF-7 breast cancer cells, dose-dependent IC50; assay type: cell-based
# Experimental: To test the therapeutic efficacy of the formulation of PTD-ABD-17-AAG in MCF-7 breast cancer cells, the IC50 value was determined in a dose-dependent manner. The IC50 value is a measure of how effective a drug or therapeutic is and is defined as the concentration required to inhibit a biological process or component of a biological process (e.g., enzyme, cell, cell receptor) in half. The PTD-ABD-17-AAG was prepared as described above (Example 1) and administered to cancer cells. MCF-7 cells were exposed to one of the following formulations: 1) PTD-ABD-17-AAG; 2) 17-AAG; or 3) PTD-ABD.
# [2] = system: breast cancer cells; assay: Short-term (4 hours) treatment of breast cancer cells, dose-dependent IC50; assay type: cell-based; conditions: breast cancer cells exposed for 4 hours
# Experimental: To examine whether the improved cellular uptake of 17-AAG by the PTD-ABD leads to enhanced efficacy of 17-AAG, breast cancer cells were exposed to 17-AAG or the PTD-ABD-17-AAG for 4 hours in a dose-dependent manner. […] Due to the facilitated uptake of 17-AAG bound to the PTD-ABD, the short-term treatment of 17-AAG at low concentrations can increase the cellular concentration of 17-AAG, which results in the enhanced anti-cancer efficacy of 17-AAG. Free 17-AAG was not sufficiently internalized into cells during the short incubation time because of the poor uptake kinetics of free 17-AAG.
# [3] = system: MCF-7 cells; assay: Uptake kinetics of FITC-GM into MCF-7 cells; assay type: cell-based; conditions: 2 hours post-treatment
# Experimental: Finally, 10 μg/ml of GM was sufficient to achieve internalization into 100% of the cell population when delivered by the PTD-ABD protein (FIG. 3c).
# [4] = system: microtubules; conditions: cited from earlier work
structure (smiles),measurement,setting,value
"C=CCNC1=C2C[C@@H](C)C[C@H](OC)[C@H](O)[C@@H](C)/C=C(\C)[C@H](OC(N)=O)[C@@H](OC)/C=C\C=C(/C)C(=O)NC(=CC1=O)C2=O [17-AAG, 17-allylamino-17-demethoxygeldanamycin]",IC50,[1],15 µM
same,IC50 value,[2],approximately 25 μg/ml
"COC1=C2C[C@@H](C)C[C@H](OC)[C@H](O)[C@@H](C)/C=C(\C)[C@H](OC(N)=O)[C@@H](OC)/C=C\C=C(/C)C(=O)NC(=CC1=O)C2=O [GM, Geldanamycin]",cell population positive to FITC (GM internalized),[3],60%
"CC(=O)O[C@H]1C(=O)[C@@]2(C)[C@H]([C@H](OC(=O)c3ccccc3)[C@]3(O)C[C@H](OC(=O)[C@H](O)[C@@H](NC(=O)c4ccccc4)c4ccccc4)C(C)=C1C3(C)C)[C@]1(OC(C)=O)CO[C@@H]1C[C@@H]2O [PTX, paclitaxel]",binding affinity Ka to microtubules,[4],~6e+07 M⁻¹

# From patent US10898582B2, “Bi-functional allosteric protein-drug molecules for targeted therapy” (UNIVERSITY OF UTAH RESEARCH FOUNDATION, priority 2014, dated 2021)
